# In patent US8138188B2, “Melanocortin type 4 receptor agonist piperidinoylpyrrolidines” (Pfizer Inc., priority 2006, dated 2012):
# pEC50: −log10 of the molar value.
# Assays:
# [1] = target: MC4 receptor (Homo sapiens, UniProt P32245); experiment: MC4 functional agonist potency (EC50), assay protocol E of US2005/0176772 / WO 2005/077935; format: cell-based; conditions: functional potency at the MC4 receptor
# Method: The compounds of formula (I) of the present invention have utility as MCR4 agonists in the treatment of various disease states.
# MC5 and MC4 EC50 activity was determined as described by assay protocols D and E, respectively, in US2005/0176772 (pages 28-30).
# [2] = target: T1, human MC3 receptor (Homo sapiens, UniProt P41968); experiment: In vitro agonist potency (EC50) against melanocortin receptor type 3, cAMP in recombinant cell line; format: cell-based; conditions: cell line stably transfected with human MC3, 1 hour at 37° C.
# T1 construct: stably transfected with full length cDNA encoding human MC1 or MC3 receptors; expressed in transfected cells; host or cells: Chinese hamster ovary cell line (MC3; 'respectively')
# T1 sequence (P41968 whole entry): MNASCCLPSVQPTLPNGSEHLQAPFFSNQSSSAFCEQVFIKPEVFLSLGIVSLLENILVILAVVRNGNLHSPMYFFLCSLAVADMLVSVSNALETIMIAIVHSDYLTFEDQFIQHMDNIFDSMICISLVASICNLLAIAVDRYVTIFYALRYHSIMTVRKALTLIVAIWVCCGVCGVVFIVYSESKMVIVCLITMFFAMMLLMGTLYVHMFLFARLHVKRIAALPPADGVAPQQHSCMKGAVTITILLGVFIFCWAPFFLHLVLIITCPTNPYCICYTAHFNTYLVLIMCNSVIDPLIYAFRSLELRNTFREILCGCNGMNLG
# Method: Measurement of In Vitro Agonist Potency (EC50) of Compounds Against Melanocortin Receptors Type 1 and 3 (MC1 and MC3).
# Activation of melanocortin (MC) receptors by agonists results in activation of intracellular adenylate cyclase enzymes that synthesise the second messenger signalling molecule, adenosine 3′,5′-cyclic monophosphate (cAMP). Changes in cAMP levels following treatment of recombinant MC1 and MC3 cell lines with test compound were measured and an MC1 and MC3 potency estimate (EC50) calculated as follows: […]
# Human embryonic kidney (HEK) or Chinese hamster ovary cell lines stably transfected with full length cDNA encoding human MC1 or MC3 receptors, respectively, were established using standard molecular biology methods. Test compounds were dissolved in dimethyl sulfoxide (DMSO) at 4 mM. 11 point half log unit increment dilution series of test compound, typically starting at 50 uM were prepared in a buffer comprised of phosphate buffered saline (PBS), 2.5% DMSO and 0.05% pluronic F-127 surfactant. Freshly cultured cells at 80-90% confluence were harvested and re-suspended in Dulbecco's Modified Eagle's Medium (DMEM). Cells (10,000 for MC3, 20,000 for MC1) were added to the test compound dilution series in a 384 well assay plate and incubated for 1 hour at 37° C. The relative cAMP concentration in each well was then measured using a β-galactosidase enzyme fragment complementation method purchased in kit form as the Discoverx cAMP II kit from GE Healthcare/Amersham Biosciences UK. In the case of MC1,3-Isobutyl-1-methylxanthine (IBMX) at a concentration of 750 μM was included in DMEM as the cells were re-suspended for assay. […] Sigmoidal curves were fitted to plots of log10 inhibitor concentration vs percent effect using a custom made software application called SIGHTS and EC50 estimates determined by the software as the concentration of test compound giving an effect half way between the bottom and top assymptopes of the sigmoidal dose response curve. Each experiment included an EC50 determination for alpha melanocyte stimulating hormone, which was used as a standard to track assay consistency and allow fair comparison between EC50 estimates obtained in different experiments.
# [3] = In vitro metabolism rate determination, human liver microsome (HLM) assay; format: in vitro ADME; conditions: human liver microsomes, substrate 1 μM; read-out: HLM (intrinsic clearance)
# Description: In vitro Metabolism Rate Determination (Human Liver Microsome (HLM); Rat Liver Microsome (RLM) Assay)
# Many drugs are metabolised by the cytochrome P450 mono-oxygenase system. This enzyme is found in high concentrations in the liver and is bound to the endoplasmic reticulum of the hepatocyte. The enzyme system can be obtained in semi-purified state by the preparation of the hepatic microsomal fractions. Determining a compound's in vitro half-life in such a system provides a useful indicator of metabolic stability.
# Methodology For In Vitro Rate Determination Using Hepatic & Supermix Microsomes
# The method outlined below is for a total incubation volume of 1.5 ml.
# 1. The following mixture is prepared in a test tube:
# 2. Defrost microsomes at room temperature and add sufficient microsomes to give a final concentration of 0.5 nmol cytochrome P450/ml of incubation e.g. for a 1.5 ml incubation, the volume of microsomes to be added is:
# [formula] 3. Add sufficient MilliQ water to give a total incubation volume of 1.425 ml. 4. Remove 237.5 μl of incubation mix and place in test tube for PNA positive control. Add 2.5 μl of PNA solution, whirlimix, and put tube into a rack in the thermostatically controlled shaking water bath 5. Remove 100 μl for no substrate control and dispense in test tube. Place test tube in a rack in the thermostatically controlled shaking water bath. 6. Add substrate to the incubation. The substrate should be at an initial concentration of 1 μM. The volume of substrate required in the remaining 1.162.5 ml incubation is calculated as follows:
# [formula] • N.B. The volume of organic solvent added should not exceed 0.1% of the total incubation volume. 7. Remove 100 μl of incubation mix into test tube for no cofactor control. Whirlimix and put into a rack in the thermostatically controlled shaking water bath. 8. Pre-incubate the tube containing the incubation mix, also positive control and no cofactor tubes in the thermostatically controlled shaking water bath set at 37° C. for approx 5 min. 9. Add NADP to initiate reaction (75 μl to each 1.162.5 ml incubation mix, 12.5 μl to positive control tube and 5 μl to no substrate tube) and take first time point immediately. The PNA positive control, no cofactor control and no substrate tubes are incubated for the total incubation time. 10. Remove 100 μl aliquots up to 9 different sampling points from 0 to 60 min (usually 0, 3, 5, 10, 15, 20, 30, 45 & 60 min) and terminate reaction. Longer incubation times can be used, but, after 120 min the microsomes deteriorate. The reaction may be terminated by addition of organic solvent, acid or base. At the end of the incubation process the no cofactor and no substrate controls in a similar manner i.e. terminate with the same reagent. 11. PNA Positive Control Procedure: • After the final sample has been taken, remove the positive control and add 1 ml 20% TCA to this tube. Also prepare a tube containing 250 μl of a PNP standard at 50 μM, and add 1 ml 20% TCA. Whirlimix both tubes and leave for approx 5 min to allow the protein to precipitate. • Centrifuge both tubes for approx 5 min in an instrument set at 3500 rpm. Remove 1 ml of supernatant and place into clean test tubes, discard the remainder. • Add 1 ml 10M NaOH to the supernatant, whirlimix, and leave to stand for approx min. Blank spectrophotometer with distilled water at 400 nm then measure absorbance of the PNP standard against distilled water. The microsomal 4-nitroanisole O-demethylase activity is calculated as follows: Calculation of Results
# [formula] • The activity value from the incubation MUST be equal to or greater than 85% of the mean value of the batch used for the incubation to be valid. If this criteria is not met, then the incubation must be repeated. 11. Analyse samples (including no cofactor and no substrate control) by a specific assay for the substrate to determine the disappearance kinetics. Analysis Of Data […]
# Chain of MC4 receptor (P32245 whole entry): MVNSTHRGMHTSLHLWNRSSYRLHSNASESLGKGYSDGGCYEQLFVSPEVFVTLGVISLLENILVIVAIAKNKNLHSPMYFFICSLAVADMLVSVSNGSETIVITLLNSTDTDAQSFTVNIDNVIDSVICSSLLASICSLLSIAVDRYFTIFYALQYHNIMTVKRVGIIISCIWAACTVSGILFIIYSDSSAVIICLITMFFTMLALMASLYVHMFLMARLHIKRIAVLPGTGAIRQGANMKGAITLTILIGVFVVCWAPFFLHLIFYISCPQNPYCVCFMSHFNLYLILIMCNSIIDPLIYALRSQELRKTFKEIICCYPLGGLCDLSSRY
SMILES,pEC50 [1],pEC50 [2],microsomal CLint at 1 μM [3] [µL/min/mg]
CC1CN(C(=O)C2CN(c3ccc(=O)n(C)n3)CC2c2ccc(Cl)cn2)CC(C)C1(O)c1ccc(Cl)cc1 (stereo not drawn) [Example 23],8.32,6.73,< 15.5
CC1CN(C(=O)C2CN(c3cncc(F)c3)CC2c2ccc(Cl)cn2)CC(C)C1(O)C1CC1 (stereo not drawn) [Example 24],7.23,5.60,355
CC1CN(C(=O)C2CN(c3cncc(F)c3)CC2c2ccc(Cl)cn2)CC(C)C1(O)c1ccc(F)cc1 (stereo not drawn) [Example 25],7.91,6.72,308
COc1ccc(N2CC(C(=O)N3CC(C)C(O)(C4CC4)C(C)C3)C(c3ccc(Cl)cn3)C2)nn1 (stereo not drawn) [Example 26],7.65,5.38,70
CC1CN(C(=O)C2CN(c3ccc(=O)[nH]n3)CC2c2ccc(Cl)cn2)CC(C)C1(O)c1ccccc1 (stereo not drawn) [Example 27],8.34,6.41,51
C[C@@H]1CN(C(=O)[C@@H]2CN(c3ccc(=O)[nH]n3)C[C@H]2c2ccc(Cl)cn2)C[C@H](C)[C@@]1(O)c1ccccn1 [Example 28],7.61,6.03,33
CC1CN(C(=O)C2CN(c3ccc(C#N)nn3)CC2c2ccc(Cl)cn2)CC(C)C1(O)c1ccccn1 (stereo not drawn) [Example 30],8.24,7.21,141
C[C@@H]1CN(C(=O)[C@@H]2CN(c3ccc(Cl)nn3)C[C@H]2c2ccc(Cl)cn2)C[C@H](C)[C@@]1(O)c1ccccn1 [Example 31],7.64,6.39,188
C[C@@H]1CN(C(=O)[C@@H]2CN(c3ccc(C#N)nn3)C[C@H]2c2ccc(F)cn2)C[C@H](C)[C@@]1(O)c1ccc(Cl)cc1 [Example 32],8.06,7.12,8
CC1CN(C(=O)C2CN(c3ccc(C#N)nn3)CC2c2ccc(F)cn2)CC(C)C1(O)c1ccccc1 (stereo not drawn) [Example 33],7.87,6.71,186
C[C@@H]1CN(C(=O)[C@@H]2CN(c3ccc(Cl)nn3)C[C@H]2c2ccc(F)cn2)C[C@H](C)[C@@]1(O)c1ccccc1 [Example 35],7.21,6.06,100
CC1CN(C(=O)C2CN(c3ccc(=O)n(C)n3)CC2c2ccc(F)cn2)CC(C)C1(O)c1ccc(F)cc1 (stereo not drawn) [Example 40],7.16,6.24,< 7
COc1ccc([C@@H]2CN(c3ccc(=O)[nH]n3)C[C@H]2C(=O)N2C[C@@H](C)[C@](O)(c3ccc(Cl)cn3)[C@@H](C)C2)nc1 [Example 41],6.18,< 4.48,21
COc1ccc([C@@H]2CN(c3ccc(C#N)nn3)C[C@H]2C(=O)N2C[C@@H](C)[C@](O)(c3ccc(F)cc3)[C@@H](C)C2)nc1 [Example 43],7.31,5.80,37
CC1CN(C(=O)C2CN(c3ccc(C#N)cn3)CC2c2ccc(C#N)cn2)CC(C)C1(O)c1ccc(F)cc1 (stereo not drawn) [Example 45],7.35,7.18,< 7
C[C@@H]1CN(C(=O)[C@@H]2CN(c3ccc(C#N)nn3)C[C@H]2c2ccc(C#N)cn2)C[C@H](C)[C@@]1(O)c1ccc(F)cc1 [Example 46],7.82,7.29,< 7
